Data set [1] can be described thus: Oral bioavailability in Balb/c mouse at 50 mg/kg by mass spectrometry. In kind it is ADME, organism-based. The following applies: in vivo.
Data set [2] is described as follows: Clearance in Balb/c mouse at 50 mg/kg, iv by mass spectrometry. In kind it is ADME, organism-based. As to conditions: in vivo.
A short description of data set [3]: Cmax in Balb/c mouse at 50 mg/kg, po by mass spectrometry. In kind it is ADME, organism-based. The arrangement: route oral, dose 50 mg/kg. As to conditions: in vivo.
Data set [4] in a line: AUC (0 to infinity) in Balb/c mouse at 50 mg/kg, po by mass spectrometry. The following applies: in vivo. In kind it is ADME, organism-based. On the set-up: route oral, time infinity, dose 50 mg/kg.
Data set [5] is described as follows: Tmax in Balb/c mouse at 50 mg/kg, po by mass spectrometry. The following applies: in vivo. In kind it is ADME, organism-based.
Data set [6] can be described thus: AUC (0 to infinity) in Balb/c mouse at 50 mg/kg, iv by mass spectrometry. In kind it is ADME, organism-based. The arrangement: route intravenous, time infinity, dose 50 mg/kg. As to conditions: in vivo.
Data set [7] is described as follows: Oral bioavailability in Balb/c mouse at 150 mg/kg by mass spectrometry. In kind it is ADME, organism-based. As to conditions: in vivo.
Data set [8] in a line: Volume of distribution at steady state in Balb/c mouse at 50 mg/kg, iv by mass spectrometry. In kind it is ADME, organism-based. The following applies: in vivo, read-out: Vdss.
Data set [9] is described as follows: Cmax in Balb/c mouse at 150 mg/kg, po by mass spectrometry. As to conditions: in vivo. On the set-up: route oral, dose 150 mg/kg. In kind it is ADME, organism-based.
Data set [10] is described as follows: physchem. The following applies: n-octanol/water, pH 7.4.
A short description of data set [11]: Tmax in Balb/c mouse at 150 mg/kg, po by mass spectrometry. In kind it is ADME, organism-based. The following applies: in vivo.
Data set [12] can be described thus: AUC (0 to infinity) in Balb/c mouse at 150 mg/kg, po by mass spectrometry. In kind it is ADME, organism-based. The arrangement: route oral, time infinity, dose 150 mg/kg. The following applies: in vivo.
Data set [13] is described as follows: in vitro. As to conditions: human, pooled liver microsomes. (In general: Liver microsomes are a subcellular fraction often used to study metabolism.)
Data set [14] in a line: in vitro. The following applies: mouse, liver microsomes.
A short description of data set [15]: in vitro. As to conditions: rat, liver microsomes.

This is an account of results in ChEMBL document CHEMBL4706478, “Design, Synthesis, and Preclinical Evaluation of Fused Pyrimidine-Based Hydroxamates for the Treatment of Hepatocellular Carcinoma” (J Med Chem, 2018).

Regarding `O=C(CCCCCCn1cnc2c(N3CCOCC3)nc(-c3cccc(CO)c3)nc21)NO`, the bioavailability in data set [1] amounted to 5.8%; in [7], 18.1%. In [2], this compound showed a clearance of 110 mL/min/kg. The Cmax in data set [3] came to 3.9 µM; in data set [9] it was 10.1 µM. Further, the AUC(0-inf) in data set [4] is 0.97 µM·h; in data set [6], 16.7 µM·h; in [12], 9.06 µM·h. Besides, the Tmax in data set [5] was 10.2 min; in data set [11], 30 min. The Vd in [8] worked out at 3.06 L/kg. Moreover, the logD in data set [10] is 2.07.

For the compound `Nc1ncc(-c2nc(N3CCOCC3)c3ncn(CCCCCCC(=O)NO)c3n2)cn1`, the half-life at 1 h, 5 µM in [13] was over 60 min; in [14], over 60 min; in data set [15], 35 min.

The compound `COc1ccc(-c2nc(N3CCOCC3)c3sc(CN(C)c4ncc(C(=O)NO)cn4)cc3n2)cn1` [FIMEPINOSTAT] returned a logD in data set [10] of 3.07.

`O=C(CCCCCCC(=O)Nc1ccccc1)NO` [VORINOSTAT] displayed a logD in data set [10] of 1.05.

Usually bioavailability stands for dose-corrected exposure relative to a reference, in per cent. High values mean much systemic uptake, low ones little systemic uptake. Usually clearance stands for the volume of plasma or blood freed of the substance per unit of time. As a reminder, the Cmax is the maximum level reached in the sampled fluid or tissue. The term AUC(0-inf) denotes the area under the concentration-time curve extrapolated to infinity. The term Tmax denotes the time at which the peak concentration occurs. Usually logD stands for lipophilicity at a set pH, counting ionised and neutral species. As usually defined, the half-life is the time in which the quantity being followed falls by half.
